Where “and” joins values, the source holds several entries; their conditions need not be identical. Equal entries are not always repeated.
Experiments:
stromelysin = stromelysin (Homo sapiens, UniProt P08254); assay: Assay of stromelysin inhibition activity (fluorogenic coumarin peptide substrate); format: biochemical; settings: trypsin-activated stromelysin 2 nM, H-150 buffer pH 7.4, room temperature; read-out: Ki(app)
Outline: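 Human stromelysin trypsin-activated, then used at 2 nM in HEPES/NaCl/CaCl2 buffer pH 7.4 at room temperature with coumarin peptide substrate. Initial hydrolysis rate followed by fluorescence (ex 328/em 393 nm); inhibitor added stepwise to 30-70% inhibition, Ki derived assuming simple competitive inhibition with substrate far below Km.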

[1] = tested on: bovine cartilage explants; assay: Bovine cartilage explant assay (35S-GAG release, rhIL-1α stimulated); format: cell-based; settings: Bos taurus, rhIL-1α 5 ng/mL, 3-4 days culture, read-out: % inhibition (concentration [μM]) of cartilage degradation
From the text: A tissue culture assay was used to measure the ability of the compounds of the present invention to slow the degradation of the extracellular matrix by metalloproteinases. This assay measured the amount of ^35 S-glycosaminoglycan (^35 S-GAG) released from labeled bovine cartilage explants.
Knee joints from a 1 to 3 week old calf were obtained immediately after sacrifice from the Abattoir and then transported on ice. The intact joints were washed well with tap water and soaked in 50% (v/v) Povidine iodine solution, obtained from Burre National, Inc., Baltimore, Md. All subsequent steps were performed in a laminar flow tissue culture hood using standard sterile technique. The joint was immobilized in a shank holder and the joint capsule was cut open to expose the articular cartilage. Cartilage explant plugs, approximately 15 mg wet weight, were removed from the flat articulating surfaces in the lower-most region of the knee joint using a sterile steel cork-borer and collected in a 250 mL roller bottle containing about 100 mL fresh Delbecco's minimum essential medium (DMEM), obtained from Gibco BRC, Life Technologies, Gaithersburg, Md., containing 4.5 g/l (D)-glucose and (L)-glutamine, without sodium pyruvate. The fresh media also contained enough Hepes buffer and sodium bicarbonate such that the pH was about 7.4. The media was then further supplemented just before use with 100 units Penicillin, 100 μg Streptomycin, and 50 μg (L)-ascorbic acid per mL of medium.
Once collected, the explant plugs were washed four times with 50 mL fresh DMEM. The plugs were then placed in the incubator for a minimum of 1 hour to equilibrate, before proceeding to make disks from the articulating surface of each plug. A 1 mm thick disk was sliced from individual plugs from the end that was the articulating surface of the joint. The plug was held steady in the sterile template (4 mm diameter×1.5 mm deep) using sterile forceps. A scalpel blade was used to carefully slice off the disk. Only the superficial articulating surface responded well in culture.
Individual disks obtained were transferred to a tissue culture flask containing about 100 mL fresh media. The flask containing the disks was placed in an incubator at 37° C. (with 5% CO2, 95% air) and allowed to equilibrate overnight and at least one additional day before labeling. When ready to label, the old media was replaced with 50 mL fresh media containing about 500 μCi ^35 S-Sodium Sulfate. The plugs were labeled in bulk for about 48 hours. The next morning, the "hot" media was removed and replaced with fresh "cold" media. The disks were again allowed to equilibrate overnight before being used for actual experiments.
The media in which the disks were stored was changed immediately prior to performing the assay. The disks were then returned to the incubator until the test media and the two control media had been prepared. The test media consisted of the desired concentration of a compound being tested for its ability to inhibit extracellular matrix degradation and concomitant recombinant human Interleukin rhIL-1α (5 ng/mL) in fresh DMEM solution. The control media were identical to the test media, except that the first control media lacked rhIL-1α and the second control media lacked the test compound. 250 μL of each of the test and control media were transferred to separate 96-well TC plates. Flamed forceps were used to transfer a disk from the incubator to each 96-well TC plates that had been filled with either the test media or one of the two control media.
The TC plates were then placed in the incubator and cultured for 3-4 days (initial incubation with rhIL-1α alpha takes at least 3 days to stimulate endogenous metalloproteinases). A 50 μL aliquot of media from each TC plate was saved and counted. The rest of the media was removed with a suction device.
The cartilage disks from each TC plate were also saved for counting. […]

Chain of stromelysin (P08254 100-477): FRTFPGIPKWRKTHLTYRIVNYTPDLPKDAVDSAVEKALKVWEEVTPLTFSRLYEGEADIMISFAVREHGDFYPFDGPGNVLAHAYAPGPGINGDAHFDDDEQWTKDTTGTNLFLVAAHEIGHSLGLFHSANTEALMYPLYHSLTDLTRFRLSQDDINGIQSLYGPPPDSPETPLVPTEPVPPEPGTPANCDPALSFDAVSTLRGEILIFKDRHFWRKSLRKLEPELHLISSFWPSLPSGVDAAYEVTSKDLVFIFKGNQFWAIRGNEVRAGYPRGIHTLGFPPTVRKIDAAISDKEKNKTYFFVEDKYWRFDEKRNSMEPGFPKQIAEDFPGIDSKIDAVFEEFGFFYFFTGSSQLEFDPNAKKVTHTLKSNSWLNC

| SMILES | Ki (stromelysin) | inhibition at 25 µM ([1]; 25 μM compound) [%] | inhibition at 50 µM ([1]; 50 μM compound) [%] | inhibition at 10 µM ([1]; 10 μM compound) [%] |
| --- | --- | --- | --- | --- |
| O=C(N[C@@H](Cc1ccc(OCc2ccccc2)cc1)C(=O)N[C@H](C(=O)Nc1n[nH]c(=S)s1)c1ccccc1)OCc1ccccc1 | 0.039 µM and 0.064 µM | 20 |  |  |
| CC(C)C[C@H](NC(=O)[C@H](Cc1ccccc1)NC(=O)OCc1ccccc1)C(=O)Nc1n[nH]c(=S)s1 [5-(N-benzyloxycarbonyl-phenylalanyl-leucylamino)-1,3,4-thiadiazole-2-thione] | 0.169 µM |  | 33 |  |
| CC(C)[C@H](NC(=O)[C@H](Cc1ccccc1)NC(=O)OCc1ccccc1)C(=O)Nc1n[nH]c(=S)s1 [5-(N-benzyloxycarbonyl-phenylalanyl-valylamino)-1,3,4-thiadiazole-2-thione] | 0.279 µM |  |  | 40 |
